This is an account of results in US9918988B2, “Ammonium derivatives for the treatment of hepatitis C” (priority 2013, dated 2018).

Read-outs that look alike come from different tables or passages of the source.

In this experiment the test system is HCV pseudoparticles (genotype 1a HCV E1 and E2 envelope, H77C isolate). In words: HCV pseudoparticle infection assay (genotype 1a, luciferase reporter, Huh7 cells). The format is cell-based. Particulars: Hepatitis C virus, Huh-7, 48 h, read-out: EC50 (1a, nM), HCV genotype 1a pseudoparticles, Huh7 cells, luciferase 2 days after infection.

As for `[2H]C([2H])(Oc1nc(Nc2ccc(C(=O)NCC[N+](C)(C)C)cc2)nc(NC2(c3ccc(Cl)cc3)CC2)n1)C(F)(F)F` [Compound 1002, 2-(4-(4-(1-(4-chlorophenyl)cyclopropylamino)-6-(2,2,2-trifluoroethoxy-D2)-1,3,5-triazin-2-ylamino)benzamido)-N,N,N-trimethylethanaminium], the EC50 (class symbol) is 0.01 to 10 nM.

Consider `C[N+](C)(C)CCNC(=O)c1ccc2cc1OCCCCCCCCOc1ccc(cc1)CNc1nc(nc(OCC(F)(F)F)n1)N2` [Compound 2001], for which, under “class symbol”, the EC50 lay within 0.01 to 10 nM.

For the molecule `C[N+](C)(C)CC(=O)NNC(=O)c1ccc(Nc2nc(NC3(c4ccc(Cl)cc4)CC3)nc(OCC(F)(F)F)n2)cc1` [Compound 1003, 2-(2-(4-(4-(1-(4-chlorophenyl)cyclopropylamino)-6-(2,2,2-trifluoroethoxy)-1,3,5-triazin-2-ylamino)benzoyl)hydrazinyl)-N,N,N-trimethyl-2-oxoethanaminium], the concentration for a half-maximal effect (EC50) was 10 to 1000 nM (class symbol) and 64.1 nM (numeric value).

On to `C[N+](C)(C)CCCNC(=O)c1ccc(Nc2nc(NC3(c4ccc(Cl)cc4)CC3)nc(OCC(F)(F)F)n2)cc1` [Compound 1004, 3-(4-(4-(1-(4-chlorophenyl)cyclopropylamino)-6-(2,2,2-trifluoroethoxy)-1,3,5-triazin-2-ylamino)benzamido)-N,N,N-trimethylpropan-1-aminium], for which the EC50 (class symbol) was in the range of 0.01 to 10 nM.

On to `C[N+](C)(C)CCCNC(=O)c1ccc2cc1OCCCCCCOc1ccc(cc1)CNc1nc(nc(OCC(F)(F)F)n1)N2` [Compound 3002], for which the EC50 (class symbol) was in the range of 10 to 1000 nM.

In the case of `C[N+](C)(C)CCNC(=O)c1ccc2cc1OCCCCCCOc1ccc(cc1)CNc1nc(nc(OCC(F)(F)F)n1)N2` [Compound 3001], for the setting “class symbol”, the half-maximal effective concentration (EC50) lay within 0.01 to 10 nM.

Take `CC(C)(CNC(=O)c1ccc2cc1OCCCCCCOc1ccc(cc1)CNc1nc(nc(OCC(F)(F)F)n1)N2)C[N+](C)(C)C` [Compound 3003]: the EC50 runs as follows: (class symbol) 0.01 to 10 nM; (numeric value) 7.51 nM.

For the molecule `C[N+](C)(C)CCNC(=O)c1ccc2cc1OCCOCCOCCOc1ccc(cc1)CNc1nc(nc(OCC(F)(F)F)n1)N2` [Compound 4001], for the setting “class symbol”, the EC50 was in the range of 0.01 to 10 nM.

With `CC(C)(CNC(=O)c1ccc(Nc2nc(NC3(c4ccc(Cl)cc4)CC3)nc(OCC(F)(F)F)n2)cc1)C[N+](C)(C)C` [Compound 1006, 3-(4-(4-(1-(4-chlorophenyl)cyclopropylamino)-6-(2,2,2-trifluoroethoxy)-1,3,5-triazin-2-ylamino)benzamido)-N,N,N,2,2-pentamethylpropan-1-aminium], the EC50 is 0.01 to 10 nM (class symbol) and 0.115 nM (numeric value).

Take `C[N+](C)(C)CCCC[C@H](NC(=O)c1ccc(Nc2nc(NC3(c4ccc(Cl)cc4)CC3)nc(OCC(F)(F)F)n2)cc1)C(=O)O` [Compound 1005, (S)-5-carboxy-5-(4-(4-(1-(4-chlorophenyl)cyclopropylamino)-6-(2,2,2-trifluoroethoxy)-1,3,5-triazin-2-ylamino)benzamido)-N,N,N-trimethylpentan-1-aminium]: for the setting “class symbol”, the EC50 is 0.01 to 10 nM.

Consider `C[N+](C)(C)CCNC(=O)c1ccc(Nc2nc(NC3(c4ccc(Cl)cc4)CC3)nc(OCC(F)(F)F)n2)cc1` [Compound 1001, 2-(4-(4-(1-(4-chlorophenyl)cyclopropylamino)-6-(2,2,2-trifluoroethoxy)-1,3,5-triazin-2-ylamino)benzamido)-N,N,N-trimethylethanaminium], for which, for the setting “class symbol”, the EC50 lay within 0.01 to 10 nM.
